The numbers were not newly measured in patent US20120128730A1, “COMPOSITIONS AND METHODS FOR ONCE-DAILY TREATMENT OF OBSESSIVE COMPULSIVE DISORDER WITH ONDANSETRON” (priority 2010, published 2012), which cites them from elsewhere.

This data set has as its system mesenteric bed or the nerves in the heart. The note with it: animal studies.

SMILES strings stand for the structures.

Regarding `Cc1nccn1CC1CCc2c(c3ccccc3n2C)C1=O` (stereo not shown) [ondansetron], the “effect on the mesenteric bed or the nerves in the heart” value is reported as “did not appear to have effect”.
